Target: T1, chicken mPRα (membrane progesterone receptor α) (Gallus gallus, UniProt C6KGD4)
T1 construct: gene PAQR7; membrane fraction or whole cells; band approx. 42 kDa
T1 sequence (C6KGD4 1-346): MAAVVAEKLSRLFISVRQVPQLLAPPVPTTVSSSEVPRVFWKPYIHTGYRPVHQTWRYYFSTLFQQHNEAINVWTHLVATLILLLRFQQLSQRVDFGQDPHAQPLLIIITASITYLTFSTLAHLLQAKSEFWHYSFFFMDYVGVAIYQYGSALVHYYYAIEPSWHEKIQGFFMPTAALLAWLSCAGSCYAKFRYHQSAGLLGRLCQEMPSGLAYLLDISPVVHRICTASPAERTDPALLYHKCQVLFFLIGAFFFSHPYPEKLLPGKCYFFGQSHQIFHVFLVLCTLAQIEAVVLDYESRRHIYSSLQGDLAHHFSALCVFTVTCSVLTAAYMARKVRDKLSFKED
Assay: radioligand saturation binding, Scatchard plot, cell membrane fraction

`CC(=O)[C@H]1CC[C@H]2[C@@H]3CC[C@H]4C[C@H](O)CC[C@]4(C)[C@H]3CC[C@]12C` [compound 2, allopregnanolone] showed a Kd of 0.0118 ± 0.0031 µM.
